# What was measured:
# Skin = assay: Dermal irritation study (primary irritation of the skin); assay type: in vivo; conditions: 0.5 ml/patch, 4 patches on each of 6 rabbits
# Procedure: The test procedure employed is described as Local Toxicity, Primary Irritation of the Skin in “Appraisal of the Safety of Chemicals in Foods, Drugs and Cosmetics” published by the Food & Drug Officials of the United States.
# The dose to test the response was 0.5 ml/patch with 4 patches on each of 6 rabbits. The results indicated a primary skin irritation index of 2.375.
# rabbit eyes = assay: Eye irritation study; assay type: in vivo, albino rabbits; conditions: 0.1 ml instilled into one eye, nine rabbits
# Procedure: The test procedure employed is described in the Appraisal of the Safety of Chemicals in Foods, Drugs and Cosmetics, published by the Association of Food and Drug Officials of the United States. Nine normal healthy albino rabbits were used for this study.
# Each of the nine animals had 0.1 ml of the test material (benzyl linoleate) instilled into one eye of each test animal. The other eye was untreated and observed as a control. Two seconds after instillation of the test material, a washout was conducted in 3 of the rabbits using 20 ml. of warm water. Four seconds after test material instillation, washout was conducted in 3 additional rabbits using 20 ml. of warm water. All animals were examined frequently during the seven following days.
# Rats = assay: Oral LD50; assay type: in vivo
# From the text: The test procedure employed is described in the “Appraisal of the Safety of Chemicals in Foods, Drugs and Cosmetics” published by the Food & Drug Officials of the United States.
smiles,measurement,setting,value
CCCCC/C=C\C/C=C\CCCCCCCC(=O)OCc1ccccc1 [Benzyl Linoleate],primary skin irritation index,Skin,2.375
same,skin irritation classification in this test system,Skin,moderate irritant
same,eye irritation classification according to the reference,rabbit eyes,non-irritating
same,irritation in rabbit eyes,"rabbit eyes; with and without washout, observed seven days",no irritation
same,Oral LD50,"Rats; rat, in vivo, po",7.0 mL/kg
same,gross autopsy findings on dead animals,"Rats; rats, oral LD50 study","hemorrhagic lungs, dark livers and spleens, slight hemorrhagic stomachs and intestines and pale kidneys"
